From ChEMBL document CHEMBL1201862, “PubChem BioAssay data set” (2004)
One block for each compound: values may come before it. Active and inactive are the calls of the source.

Tests used:
Melanocortin receptor 4 = Melanocortin receptor 4 (Homo sapiens, UniProt P32245); format: functional, cell-based;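 note: Cell-based assay with luminescence read-out, confirmatory dose-response testing for agonist activity of biased ligands at MC4R; human U2OS cells with tagged receptor and beta-arrestin; potency of agonists that increase receptor coupling to beta-arrestin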
[1] = molecular target: Dual specificity tyrosine-phosphorylation-regulated kinase 1A (Rattus norvegicus, UniProt Q63470); format: biochemical, Homo sapiens
[2] = molecular target: FAD-linked sulfhydryl oxidase ALR (Homo sapiens, UniProt P55789); assay: inhibitors of human ALR sulfhydryl oxidase, dose response, biochemical, H2O2 detection, luminescence, cherry-pick (AID 493248)
[3] = molecular target: 26S proteasome non-ATPase regulatory subunit 14 (Homo sapiens, UniProt O00487); assay: inhibition of proteasome subunit RPN11 – biochemical, fluorescence polarization, uHTS hits, confirmation (AID 602368); format: functional
[4] = molecular target: 72 kDa type IV collagenase (Homo sapiens, UniProt P08253); assay: Dose Response validation of uHTS RPN11 inhibitor hits using a MMP-2 Fluorescence assay.; format: functional
Prothrombin = Prothrombin (Bos taurus, UniProt P00735); assay: thrombin inhibition, dose response, biochemical, fluorescence polarization, uHTS hits (AID 602369); format: functional
[5] = molecular target: DNA dC->dU-editing enzyme APOBEC-3G (Homo sapiens, UniProt Q9HC16); format: functional;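 note: Dose-response counterscreen measuring inhibition of APOBEC3G DNA deaminase activity, run while confirming APOBEC3A inhibitors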
[6] = molecular target: DNA dC->dU-editing enzyme APOBEC-3A (Homo sapiens, UniProt P31941); assay: Dose Response confirmation of small molecule APOBEC3A DNA Deaminase Inhibitors via a fluorescence-based single-stranded DNA deaminase assay. [Related pubchem assays (depositor defined):AID493011, AID493024]; format: functional
Cytochrome P450 3A4 = Cytochrome P450 3A4 (Homo sapiens, UniProt P08684); conditions: Potency;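 note: confirmatory qHTS run detecting inhibitors and substrates of CYP3A4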
[7] = molecular target: T1, Short transient receptor potential channel 4 (Mus musculus, UniProt Q9QUQ5); assay: mouse TRPC4 channel activators, dose response, cell-based, HEK293 TRPC4/mu-opioid, Fluo-4 calcium (AID 434937); format: functional
T1 sequence (Q9QUQ5 whole entry): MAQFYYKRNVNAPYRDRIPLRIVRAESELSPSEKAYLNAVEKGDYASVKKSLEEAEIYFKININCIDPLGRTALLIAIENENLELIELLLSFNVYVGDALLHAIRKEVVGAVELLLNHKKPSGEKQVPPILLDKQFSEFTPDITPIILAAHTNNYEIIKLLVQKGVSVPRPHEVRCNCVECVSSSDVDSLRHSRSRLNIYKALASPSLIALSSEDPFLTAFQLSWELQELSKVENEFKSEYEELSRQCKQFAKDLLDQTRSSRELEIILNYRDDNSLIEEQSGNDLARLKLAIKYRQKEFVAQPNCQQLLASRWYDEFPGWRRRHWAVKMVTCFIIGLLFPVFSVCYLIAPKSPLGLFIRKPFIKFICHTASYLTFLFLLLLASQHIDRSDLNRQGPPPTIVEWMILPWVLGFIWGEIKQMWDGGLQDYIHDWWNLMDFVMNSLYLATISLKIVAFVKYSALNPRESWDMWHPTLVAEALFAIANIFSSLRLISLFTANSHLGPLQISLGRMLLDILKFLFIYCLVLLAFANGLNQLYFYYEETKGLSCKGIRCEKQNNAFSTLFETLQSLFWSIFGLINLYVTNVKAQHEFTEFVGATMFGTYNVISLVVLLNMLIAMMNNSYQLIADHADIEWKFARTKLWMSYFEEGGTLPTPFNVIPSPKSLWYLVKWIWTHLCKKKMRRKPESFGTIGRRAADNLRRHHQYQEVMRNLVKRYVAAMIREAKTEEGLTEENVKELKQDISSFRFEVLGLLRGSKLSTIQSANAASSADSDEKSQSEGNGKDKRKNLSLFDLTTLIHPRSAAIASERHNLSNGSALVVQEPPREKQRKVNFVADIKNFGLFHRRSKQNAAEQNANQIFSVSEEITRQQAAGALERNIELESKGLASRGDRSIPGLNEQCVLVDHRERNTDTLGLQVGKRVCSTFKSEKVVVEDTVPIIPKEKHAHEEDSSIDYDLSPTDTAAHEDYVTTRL

[8] = molecular target: T2, High affinity choline transporter 1 (Homo sapiens, UniProt Q9GZV3); assay: CHT inhibitors, dose response, cell-based, 5-point CRC, membrane potential dye (AID 504840); format: functional
T2 sequence (Q9GZV3 whole entry): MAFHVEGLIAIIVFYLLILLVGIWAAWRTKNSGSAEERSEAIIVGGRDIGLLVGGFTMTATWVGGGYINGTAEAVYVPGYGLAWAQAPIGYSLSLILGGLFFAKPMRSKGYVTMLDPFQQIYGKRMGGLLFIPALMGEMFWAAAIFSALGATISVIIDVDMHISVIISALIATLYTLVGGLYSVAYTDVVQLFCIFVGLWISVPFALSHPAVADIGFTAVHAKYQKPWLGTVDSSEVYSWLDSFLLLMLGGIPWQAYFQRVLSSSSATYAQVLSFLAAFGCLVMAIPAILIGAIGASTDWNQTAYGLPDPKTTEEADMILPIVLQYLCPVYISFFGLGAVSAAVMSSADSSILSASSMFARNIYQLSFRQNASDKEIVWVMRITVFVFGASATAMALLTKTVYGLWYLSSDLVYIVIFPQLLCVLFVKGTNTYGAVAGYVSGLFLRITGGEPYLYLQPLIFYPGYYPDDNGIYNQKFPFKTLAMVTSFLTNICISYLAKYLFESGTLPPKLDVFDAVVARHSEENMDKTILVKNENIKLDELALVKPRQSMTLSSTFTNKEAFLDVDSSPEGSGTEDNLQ

SUMO-activating enzyme = SUMO-activating enzyme (Homo sapiens, UniProt Q9UBT2); assay: SUMOylation inhibitor hit validation, confirmation, SUMOylation inhibitor project, biochemical, AlphaScreen (AID 2018); format: functional
HEK293 [9] = assay: NOD2 signaling inhibitors in MDP-stimulated cells, cell-based, uHTS, luminescence (AID 2001); format: functional; conditions: Homo sapiens
HEK293 [10] = assay: cells; format: functional, cell-based; conditions: Homo sapiens
HEK293 [11] = assay: cells; format: functional, cell-based; conditions: Homo sapiens; remark: listed apart in the source
HEK293 [12] = assay: cells; conditions: Homo sapiens
[13] = molecular target: T3, Nucleotide-binding oligomerization domain-containing protein 1 (Homo sapiens, UniProt Q9Y239); assay: NOD1 signaling inhibitors, SAR follow-up, revised (AID 2333); format: functional
T3 sequence (Q9Y239 whole entry): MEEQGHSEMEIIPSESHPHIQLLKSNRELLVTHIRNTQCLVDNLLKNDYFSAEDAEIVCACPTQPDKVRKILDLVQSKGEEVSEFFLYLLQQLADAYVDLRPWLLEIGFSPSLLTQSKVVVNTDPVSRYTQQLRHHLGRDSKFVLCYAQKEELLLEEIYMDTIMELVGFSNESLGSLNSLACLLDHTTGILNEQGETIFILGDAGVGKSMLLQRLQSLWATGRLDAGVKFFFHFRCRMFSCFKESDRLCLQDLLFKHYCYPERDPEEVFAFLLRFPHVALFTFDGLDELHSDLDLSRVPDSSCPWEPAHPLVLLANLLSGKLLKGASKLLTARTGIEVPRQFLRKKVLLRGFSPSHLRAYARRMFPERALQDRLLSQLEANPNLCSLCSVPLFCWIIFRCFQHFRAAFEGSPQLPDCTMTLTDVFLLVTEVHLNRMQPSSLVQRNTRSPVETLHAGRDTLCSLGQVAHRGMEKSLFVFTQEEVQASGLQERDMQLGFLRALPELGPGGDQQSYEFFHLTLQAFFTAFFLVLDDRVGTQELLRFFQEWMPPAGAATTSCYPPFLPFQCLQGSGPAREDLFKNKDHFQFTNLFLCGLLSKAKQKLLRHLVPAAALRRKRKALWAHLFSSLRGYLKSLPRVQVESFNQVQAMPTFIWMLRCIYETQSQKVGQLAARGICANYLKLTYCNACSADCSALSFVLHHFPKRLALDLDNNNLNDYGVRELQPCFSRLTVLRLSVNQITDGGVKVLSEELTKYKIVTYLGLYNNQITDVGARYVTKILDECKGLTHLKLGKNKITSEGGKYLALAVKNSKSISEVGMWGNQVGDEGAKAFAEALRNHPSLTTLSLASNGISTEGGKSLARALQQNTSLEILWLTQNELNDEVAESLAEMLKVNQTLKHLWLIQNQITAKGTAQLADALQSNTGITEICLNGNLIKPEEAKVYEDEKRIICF

HEK293 [14] = assay: NOD1 signaling inhibitors, primary screen, cell-based, luminescence, uHTS (AID 1578); format: functional; conditions: Homo sapiens
Tumor necrosis factor = Tumor necrosis factor (Homo sapiens, UniProt P01375); assay: TNFa-triggered NF-kB activation inhibitors, SAR follow-up, cell-based, revised (AID 2337); format: functional
[15] = molecular target: Eukaryotic translation initiation factor 4E (Mus musculus, UniProt P63073); assay: eIF4E–eIF4G protein interaction inhibitors, dose response, biochemical, TR-FRET (AID 855); format: functional;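 note: potency for disrupting eIF4E binding to eIF4GI seen as loss of FRET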
[16] = control 3'UTR Renilla luciferase suppression, dose response, counter-screen for Shn3 inhibitor project, cell-based, Clone20-Shn3RL, cherry-picked (AID 624133); format: functional
[17] = Shn3 3'UTR reporter inhibitors, dose response, cell-based, Clone20 osteoblasts, firefly luciferase, cherry-picked (AID 624132); format: functional;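 note: firefly luciferase luminescence from reporter carrying the Shn3 3'UTR in osteoblasts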
[18] = HepG2 cell cytotoxicity, dose response, cytotoxicity control for Shn3 inhibitor project, CellTiter-Glo, cherry-picked (AID 624134); format: functional, cell-based

Sequence of Tumor necrosis factor (P01375 whole entry): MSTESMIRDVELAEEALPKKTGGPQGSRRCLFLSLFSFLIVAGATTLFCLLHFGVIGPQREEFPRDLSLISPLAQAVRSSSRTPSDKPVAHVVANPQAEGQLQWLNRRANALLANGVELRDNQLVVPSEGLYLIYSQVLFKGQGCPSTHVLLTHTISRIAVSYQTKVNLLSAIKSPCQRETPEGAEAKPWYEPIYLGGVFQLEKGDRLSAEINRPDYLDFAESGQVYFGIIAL
Sequence of DNA dC->dU-editing enzyme APOBEC-3A (P31941 whole entry): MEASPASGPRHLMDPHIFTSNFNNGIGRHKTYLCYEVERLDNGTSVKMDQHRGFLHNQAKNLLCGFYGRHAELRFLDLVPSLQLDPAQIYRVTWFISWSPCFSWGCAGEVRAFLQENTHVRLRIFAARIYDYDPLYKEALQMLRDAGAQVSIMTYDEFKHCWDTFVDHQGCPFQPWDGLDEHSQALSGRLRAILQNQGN
Sequence of 26S proteasome non-ATPase regulatory subunit 14 (O00487 whole entry): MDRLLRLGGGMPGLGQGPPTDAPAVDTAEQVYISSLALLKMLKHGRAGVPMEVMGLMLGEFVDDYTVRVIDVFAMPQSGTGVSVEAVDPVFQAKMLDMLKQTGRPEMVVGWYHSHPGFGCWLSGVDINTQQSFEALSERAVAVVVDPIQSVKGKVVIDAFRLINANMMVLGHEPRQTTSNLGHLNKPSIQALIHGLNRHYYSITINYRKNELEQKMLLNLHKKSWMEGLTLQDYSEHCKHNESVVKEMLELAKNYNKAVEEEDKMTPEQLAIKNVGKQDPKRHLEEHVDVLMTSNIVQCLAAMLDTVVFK
Sequence of Melanocortin receptor 4 (P32245 whole entry): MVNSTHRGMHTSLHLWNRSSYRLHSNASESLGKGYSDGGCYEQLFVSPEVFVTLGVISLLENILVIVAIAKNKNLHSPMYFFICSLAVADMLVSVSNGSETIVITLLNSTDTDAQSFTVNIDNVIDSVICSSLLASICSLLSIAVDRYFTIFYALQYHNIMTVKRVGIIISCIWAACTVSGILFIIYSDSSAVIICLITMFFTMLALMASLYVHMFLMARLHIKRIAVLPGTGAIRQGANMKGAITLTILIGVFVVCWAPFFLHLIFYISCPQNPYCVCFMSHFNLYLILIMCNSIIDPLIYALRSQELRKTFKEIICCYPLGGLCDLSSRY
Sequence of DNA dC->dU-editing enzyme APOBEC-3G (Q9HC16 whole entry): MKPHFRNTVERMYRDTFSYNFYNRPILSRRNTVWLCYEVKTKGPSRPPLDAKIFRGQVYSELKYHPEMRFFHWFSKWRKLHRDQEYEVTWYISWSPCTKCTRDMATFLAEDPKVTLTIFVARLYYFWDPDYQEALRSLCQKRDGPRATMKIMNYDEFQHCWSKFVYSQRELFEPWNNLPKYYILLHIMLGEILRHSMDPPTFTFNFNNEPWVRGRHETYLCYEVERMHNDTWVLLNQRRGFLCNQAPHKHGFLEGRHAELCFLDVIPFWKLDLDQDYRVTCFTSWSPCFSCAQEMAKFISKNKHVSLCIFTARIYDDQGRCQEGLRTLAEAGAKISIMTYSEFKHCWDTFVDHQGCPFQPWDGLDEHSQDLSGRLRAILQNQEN
Sequence of 72 kDa type IV collagenase (P08253 whole entry): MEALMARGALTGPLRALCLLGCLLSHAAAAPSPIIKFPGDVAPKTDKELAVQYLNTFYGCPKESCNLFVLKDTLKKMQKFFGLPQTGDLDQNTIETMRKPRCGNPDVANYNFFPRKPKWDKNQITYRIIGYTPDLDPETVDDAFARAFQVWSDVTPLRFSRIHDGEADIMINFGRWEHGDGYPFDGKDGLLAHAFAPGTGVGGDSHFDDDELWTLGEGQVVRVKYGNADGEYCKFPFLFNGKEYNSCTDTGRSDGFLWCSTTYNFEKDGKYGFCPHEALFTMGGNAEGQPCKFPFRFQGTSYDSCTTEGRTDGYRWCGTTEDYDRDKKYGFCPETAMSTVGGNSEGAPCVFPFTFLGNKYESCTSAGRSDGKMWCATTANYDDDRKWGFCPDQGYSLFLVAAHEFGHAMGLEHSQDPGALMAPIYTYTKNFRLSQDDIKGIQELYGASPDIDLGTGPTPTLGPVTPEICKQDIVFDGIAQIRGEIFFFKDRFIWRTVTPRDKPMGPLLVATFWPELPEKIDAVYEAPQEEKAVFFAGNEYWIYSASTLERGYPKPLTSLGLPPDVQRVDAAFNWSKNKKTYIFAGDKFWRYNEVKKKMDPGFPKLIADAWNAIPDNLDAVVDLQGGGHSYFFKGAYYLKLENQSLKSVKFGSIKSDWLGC
Sequence of Cytochrome P450 3A4 (P08684 whole entry): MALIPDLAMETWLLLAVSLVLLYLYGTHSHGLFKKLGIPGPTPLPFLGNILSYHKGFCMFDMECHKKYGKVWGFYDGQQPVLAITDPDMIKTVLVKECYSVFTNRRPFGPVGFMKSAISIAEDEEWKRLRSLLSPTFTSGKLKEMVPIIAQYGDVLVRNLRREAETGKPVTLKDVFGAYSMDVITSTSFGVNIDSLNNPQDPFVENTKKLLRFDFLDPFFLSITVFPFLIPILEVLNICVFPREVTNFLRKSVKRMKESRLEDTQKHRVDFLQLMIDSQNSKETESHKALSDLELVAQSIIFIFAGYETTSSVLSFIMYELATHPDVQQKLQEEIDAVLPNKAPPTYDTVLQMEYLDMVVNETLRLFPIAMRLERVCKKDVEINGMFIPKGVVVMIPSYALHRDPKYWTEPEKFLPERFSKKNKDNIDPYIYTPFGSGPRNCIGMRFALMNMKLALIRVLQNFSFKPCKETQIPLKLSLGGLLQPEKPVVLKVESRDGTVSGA
Sequence of Eukaryotic translation initiation factor 4E (P63073 whole entry): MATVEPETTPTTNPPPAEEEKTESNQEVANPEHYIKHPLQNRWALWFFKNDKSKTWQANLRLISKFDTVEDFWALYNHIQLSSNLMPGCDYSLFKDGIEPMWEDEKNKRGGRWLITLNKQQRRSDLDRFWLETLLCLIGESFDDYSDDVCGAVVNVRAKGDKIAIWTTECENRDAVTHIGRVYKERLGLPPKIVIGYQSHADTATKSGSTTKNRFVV
Sequence of SUMO-activating enzyme (Q9UBE0 whole entry): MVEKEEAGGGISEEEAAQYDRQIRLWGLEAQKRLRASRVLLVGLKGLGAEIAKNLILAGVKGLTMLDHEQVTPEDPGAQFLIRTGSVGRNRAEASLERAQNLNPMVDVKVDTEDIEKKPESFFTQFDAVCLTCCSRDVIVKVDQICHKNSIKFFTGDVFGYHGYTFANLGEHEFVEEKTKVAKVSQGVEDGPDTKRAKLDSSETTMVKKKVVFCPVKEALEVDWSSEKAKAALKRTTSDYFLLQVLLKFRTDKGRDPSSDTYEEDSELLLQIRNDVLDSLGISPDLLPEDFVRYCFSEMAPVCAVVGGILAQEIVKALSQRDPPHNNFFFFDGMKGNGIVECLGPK
Sequence of SUMO-activating enzyme (Q9UBT2 whole entry): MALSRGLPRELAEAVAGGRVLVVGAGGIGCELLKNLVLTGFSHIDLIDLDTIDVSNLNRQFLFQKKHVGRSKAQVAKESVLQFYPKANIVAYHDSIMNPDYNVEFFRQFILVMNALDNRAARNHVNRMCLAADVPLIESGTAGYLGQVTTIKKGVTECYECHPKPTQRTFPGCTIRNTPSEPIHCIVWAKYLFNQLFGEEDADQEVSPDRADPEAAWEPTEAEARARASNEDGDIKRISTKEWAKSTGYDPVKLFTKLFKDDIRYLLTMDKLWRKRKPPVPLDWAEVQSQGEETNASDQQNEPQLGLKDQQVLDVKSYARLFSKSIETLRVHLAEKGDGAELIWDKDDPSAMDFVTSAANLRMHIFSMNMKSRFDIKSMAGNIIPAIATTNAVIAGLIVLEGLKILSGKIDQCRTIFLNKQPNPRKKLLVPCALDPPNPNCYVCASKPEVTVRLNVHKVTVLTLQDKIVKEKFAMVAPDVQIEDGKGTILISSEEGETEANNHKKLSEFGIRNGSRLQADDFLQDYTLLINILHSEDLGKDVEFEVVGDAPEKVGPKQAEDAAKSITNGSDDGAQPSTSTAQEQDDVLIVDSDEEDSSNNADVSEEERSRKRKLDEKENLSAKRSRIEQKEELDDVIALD
Sequence of FAD-linked sulfhydryl oxidase ALR (P55789 whole entry): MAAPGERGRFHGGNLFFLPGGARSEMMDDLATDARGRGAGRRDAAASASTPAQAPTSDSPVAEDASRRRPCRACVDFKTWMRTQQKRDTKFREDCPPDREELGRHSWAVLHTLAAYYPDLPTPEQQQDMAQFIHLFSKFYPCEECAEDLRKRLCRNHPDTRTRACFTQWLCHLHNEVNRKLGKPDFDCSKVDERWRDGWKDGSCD

EC50 (Melanocortin receptor 4): > 89.2 µM (inactive)
SMILES: CC1(C)Oc2ccc3ccc(=O)oc3c2C(/C=N/c2ccc(O)cc2)=C1O

EC50 (Melanocortin receptor 4): > 89.2 µM (inactive)
SMILES: COc1ccccc1NC(=O)Nc1nc(C(N)Cc2ccc(Cl)cc2)cs1 (configuration not stated)

AC50 [1]: 6.39 µM (active)
SMILES: COc1ccc2cc(-c3cccnc3)ncc2c1

AC50 [2]: 598 nM (active) | IC50 [3]: 26.2 µM (active) | IC50 [4]: > 100 µM (inactive) | IC50 (Prothrombin): 86.9 µM (active)
SMILES: Cc1ccc(-n2cccc2/C=C2/C(=N)N3C(=NC2=O)SN=C3S(C)(=O)=O)cc1

SMILES: CN1CCN(CC(=O)Nc2sc3c(c2C(=O)Nc2ccccc2)CCCC3)CC1
IC50 [5]: 5.56 µM (active) | IC50 [6]: 6.88 µM (active)

SMILES: COC(C)C(O)(C(=O)OC1=CCN2CC[C@H](O)[C@H]12)C(C)C (some centres not stated)
AC50 (Cytochrome P450 3A4): 50.1 µM (inconclusive)

EC50 [7]: 4.73 µM (active)
SMILES: CN1CCN(c2ccc(C(F)(F)F)cc2NC(=O)Nc2ccccc2)CC1

IC50 [8]: 18.2 µM (active)
SMILES: CCn1cc(CNC(=O)c2cc(COc3ccc(F)cc3F)on2)cn1

IC50 [8]: 13.8 µM (active)
SMILES: Cc1ccc2cc3c(NS(=O)(=O)c4cccc5nonc45)nn(CC(C)C)c3nc2c1

EC50 [7]: 10.6 µM (active)
SMILES: Fc1ccc(C2CCNCC2COc2ccc3c(c2)OCO3)cc1 (configuration not stated)

IC50 (SUMO-activating enzyme): 20.4 µM (active)
SMILES: COc1ccccc1NC(=O)c1sc2ncn(CC(=O)Nc3ccccc3)c(=O)c2c1C

EC50 [7]: 5.31 µM (active)
SMILES: Fc1ccc(-c2nnc(CN3CCN(c4ncc(C(F)(F)F)cc4Cl)CC3)o2)cc1

EC50 [7]: 0.133 µM (active)
SMILES: COc1ccc(C(CNCC(=O)Nc2ccccc2F)N(C)C)cc1 (configuration not stated)

SMILES: Cc1c(NC(=O)c2nc[nH]n2)cccc1-c1nc2ccccc2s1
IC50 [5]: 2.54 µM (active) | IC50 [6]: 1.58 µM (active)

IC50 [3]: 22.8 µM (active) | IC50 [4]: > 100 µM (inactive) | IC50 (Prothrombin): 14.8 µM (active)
SMILES: C(=C\c1ccco1)/C1=NN(c2ccccc2)C(c2ccco2)C1 (configuration not stated)

SMILES: Cc1cc(C)cc(-n2cccc2/C=C2/C(=N)N3C(=NC2=O)SN=C3S(C)(=O)=O)c1
IC50 [3]: 37.6 µM (active) | IC50 [4]: 81.6 µM (active) | IC50 (Prothrombin): 74.6 µM (active)

SMILES: CCN1C[C@@]2(C)CC[C@@H](OC)[C@@]34C2C(O)[C@@]2(OCO[C@]25CC(OC)C2C[C@@]3(O)C5C2O)C14 (some centres not stated)
AC50 (Cytochrome P450 3A4): 39.8 µM (inconclusive)

SMILES: CCN1C(N(C)CCc2cccs2)=N[C@@H](c2ccccc2)C(C(=O)OC)=C1C
IC50 [5]: 8.2 µM (active) | IC50 [6]: 6.31 µM (active)

SMILES: CCc1n(CC(O)COCC2CC=CCC2)c2ccccc2[n+]1C (configuration not stated)
IC50 [5]: 3.7 µM (active) | IC50 [6]: 1.93 µM (active)

SMILES: Cc1nc(CN(C)C(=O)c2cc(COc3ccc4ncccc4c3)on2)cs1
IC50 (HEK293 [9]): 14.3 µM (inactive) | IC50 (HEK293 [10]): 7.67 µM (active) | IC50 (HEK293 [11]): > 20 µM (inactive) | IC50 (HEK293 [12]): > 20 µM (inactive) | IC50 [13]: > 20 µM (inactive) | EC50 (HEK293 [14]): 2.75 µM (active) | IC50 (Tumor necrosis factor): > 20 µM (inactive)

EC50 (Melanocortin receptor 4): > 89.2 µM (inactive) | IC50 [15]: > 64 µM (inactive)
SMILES: CCn1c(SCC(=O)Nc2ccc(C(C)=O)cc2)nc2nc3c(cc2c1=O)CCCC3

IC50 [8]: 13.1 µM (active)
SMILES: CCCCNC(=O)c1ccc2c(OCC)n(CCCC)nc2c1

SMILES: CN(Cc1ccc(F)cc1)S(=O)(=O)c1nnc(NC(=O)c2ccccc2)s1
IC50 (HEK293 [9]): 16.7 µM (inactive) | IC50 (HEK293 [10]): > 20 µM (inactive) | IC50 (HEK293 [11]): > 20 µM (inactive) | IC50 (HEK293 [12]): > 20 µM (inactive) | IC50 [13]: 11.1 µM (active) | EC50 (HEK293 [14]): 3.08 µM (active) | IC50 (Tumor necrosis factor): 15.1 µM (active)

SMILES: COc1ccc(CNc2ncnc3sccc23)cc1OC
IC50 (HEK293 [9]): > 20 µM (inactive) | AC50 [16]: 5.11 µM (active) | IC50 (HEK293 [10]): 17.4 µM (active) | IC50 (HEK293 [11]): > 20 µM (inactive) | IC50 (HEK293 [12]): > 20 µM (inactive) | AC50 [17]: 2.34 µM (active) | AC50 [18]: 68.3 µM (active) | IC50 [13]: 9.64 µM (active) | EC50 (HEK293 [14]): 5.37 µM (active) | IC50 (Tumor necrosis factor): 13 µM (active)
